# Reference: patent US20170305922A1, “CARM1 INHIBITORS AND USES THEREOF” (Epizyme, Inc., priority 2014, published 2017)
# pIC50: −log10 of the molar value.
# Assays:
# [1] = test system: asymmetric di-methyl PABP1 in RKO cells; assay: RKO methylation assay: In Cell Western (ICW) for asymmetric di-methyl PABP1 (PABP1me2a); conditions: Homo sapiens, RKO, 48 h, Cellular-based (PABP1me2a) ICW (In Cell Western) assay
# Procedure, shortened: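 In-cell western on compound-exposed RKO cells (48 hours): asymmetric di-methyl PABP1 detected by antibody at 800 nm, DNA content by DRAQ5 at 700 nm. Percent inhibition from signal ratios against DMSO (minimum) and 20 μM reference compound (maximum) wells; IC50 curves fitted from triplicates.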
# Human CARM1 (PRMT4) = biological target: T1, Human CARM1 (PRMT4) (Homo sapiens, UniProt Q86X55); assay: CARM1 enzyme assay on peptide substrates (3H-SAM Flashplate); conditions: Biochemical assay; CARM1 0.25 nM, 3H-SAM 30 nM, peptide 250 nM; read-out: Biochem IC50
# T1 construct: Flag-CARM1-His was eluted with 200 ug/ml FLAG peptide in buffer A; made in house; host or cells: HEK 293F cells infected with recombinant baculovirus (pFastBacMam)
# T1 sequence (Q86X55 1-585 isoform Q86X55-1): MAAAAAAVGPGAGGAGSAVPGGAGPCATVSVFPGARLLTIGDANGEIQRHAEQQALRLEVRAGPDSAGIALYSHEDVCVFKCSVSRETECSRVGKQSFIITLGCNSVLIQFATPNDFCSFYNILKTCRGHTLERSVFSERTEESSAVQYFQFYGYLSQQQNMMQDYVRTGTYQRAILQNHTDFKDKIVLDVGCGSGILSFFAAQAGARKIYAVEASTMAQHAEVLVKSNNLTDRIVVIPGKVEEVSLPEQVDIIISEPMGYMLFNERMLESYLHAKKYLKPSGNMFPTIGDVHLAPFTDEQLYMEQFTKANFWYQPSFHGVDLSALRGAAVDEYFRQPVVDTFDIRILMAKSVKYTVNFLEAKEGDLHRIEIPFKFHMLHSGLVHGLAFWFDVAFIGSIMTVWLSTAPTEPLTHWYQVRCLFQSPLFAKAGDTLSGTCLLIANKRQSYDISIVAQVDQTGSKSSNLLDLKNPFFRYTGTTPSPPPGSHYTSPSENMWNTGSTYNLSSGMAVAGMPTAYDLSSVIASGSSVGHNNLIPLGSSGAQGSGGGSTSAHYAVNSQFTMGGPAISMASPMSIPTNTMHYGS
pIC50 [1],pIC50 (Human CARM1 (PRMT4)),Compound
6.57,8.32,CCn1ncc(Cl)c1-c1nc(-c2cc(OC[C@H](O)CNC)ccc2Cl)nc(N2Cc3cncnc3C2)c1C [Example 76]
6.53,8.43,CCn1ncc(Cl)c1-c1nc(-c2cc(OC[C@H](O)CNC)ccc2Cl)nc(N2Cc3cccnc3C2)c1C [Example 77]
6.95,8.25,CNC[C@@H](O)COc1ccc(Cl)c(-c2nc(-c3c(C)noc3C)c(C)c(N3CC4(C3)CC(F)(F)C4)n2)c1 [Example 78]
7.22,8.03,CNC[C@@H](O)COc1ccc(Cl)c(-c2nc(-c3c(C)noc3C)c(C)c(N3CC4(CC(OC)C4)C3)n2)c1 [Example 79]
6.74,8.06,CNC[C@@H](O)COc1ccc(Cl)c(-c2nc(-c3c(C)cnn3C)c(C)c(N3CC4(CCN(C(=O)OC)CC4)C3)n2)c1 [Example 80]
6.95,8.42,CNC[C@@H](O)COc1ccc(Cl)c(-c2nc(-c3c(C)cnn3C)c(C)c(N3Cc4cncnc4C3)n2)c1 [Example 81]
7.25,8.68,CNC[C@@H](O)COc1ccc(Cl)c(-c2nc(-c3c(C)cnn3C)c(C)c(N3Cc4cccnc4C3)n2)c1 [Example 82]
7.13,8.48,CNC[C@@H](O)COc1ccc(Cl)c(-c2nc(-c3c(C)noc3C)c(C)c(N3CC4(CCC(SC)CC4)C3)n2)c1 [Example 83]
7.55,8.80,CNC[C@@H](O)COc1ccc(Cl)c(-c2nc(-c3c(C)c(Cl)nn3C)c(C)c(N3Cc4cccnc4C3)n2)c1 [Example 84]
7.08,8.96,CNC[C@@H](O)COc1cccc(-c2nc(-c3c(C)c(Cl)nn3C)c(C)c(N3Cc4cccnc4C3)n2)c1 [Example 85]
6.55,7.01,CNC[C@@H](O)COc1ccc(Cl)c(-c2nc(C#CC3CCN(C(=O)OC)CC3)c(C)c(-c3c(C)noc3C)n2)c1 [Example 86]
6.69,8.05,CCn1ncc(C)c1-c1nc(-c2cc(OC[C@H](O)CNC)ccc2Cl)nc(N2CC3(CCN(C(=O)OC)CC3)C2)c1C [Example 87]
6.65,8.34,CCn1ncc(C)c1-c1nc(-c2cc(OC[C@H](O)CNC)ccc2Cl)nc(N2Cc3cncnc3C2)c1C [Example 88]
6.78,8.43,CCn1ncc(C)c1-c1nc(-c2cc(OC[C@H](O)CNC)ccc2Cl)nc(N2Cc3cccnc3C2)c1C [Example 89]
7.49,8.66,CNC[C@@H](O)COc1ccc(Cl)c(-c2nc(-c3c(C)noc3C)c(C)c(N3Cc4nc(OC)nc(OC)c4C3)n2)c1 [Example 90]
7.04,8.26,CNC[C@@H](O)COc1ccc(Cl)c(-c2nc(-c3c(C)noc3C)c(C)c(N3CC4(CC(C(=O)N(C)C)C4)C3)n2)c1 [Example 91]
7.19,8.28,CNC[C@@H](O)COc1ccc(Cl)c(-c2nc(-c3c(C)noc3C)c(C)c(N3CC4(CCC(C#N)CC4)C3)n2)c1 [Example 92]
7.48,8.64,CNC[C@@H](O)COc1ccc(Cl)c(-c2nc(-c3c(C)noc3C)c(C)c(N3Cc4ncnc(OC)c4C3)n2)c1 [Example 93]
7.36,8.64,CNC[C@@H](O)COc1ccc(Cl)c(-c2nc(-c3c(C)noc3C)c(C)c(N3Cc4ncnc(OCCOC)c4C3)n2)c1 [Example 94]
6.00,7.95,CNC[C@@H](O)COc1ccc(Cl)c(-c2nc(/C=C(\OC)C3CCN(C(=O)OC)CC3)c(C)c(-c3c(C)noc3C)n2)c1 [Example 95]
7.27,8.68,CNC[C@@H](O)COc1ccc(Cl)c(-c2nc(-c3c(C)noc3C)c(C)c(N3CC4(C3)CN(C3CC3)C4)n2)c1 [Example 96]
6.40,7.96,CNC[C@@H](O)COc1ccc(Cl)c(-c2nc(-c3c(C)noc3C)c(C)c(N3CC4(CCC(S(C)(=O)=O)CC4)C3)n2)c1 [Example 97]
7.00,8.08,CNC[C@@H](O)COc1ccc(Cl)c(-c2nc(-c3c(C)noc3C)c(C)c(N3CC4(CCN4C(=O)OC)C3)n2)c1 [Example 98]
7.41,7.96,CNC[C@@H](O)COc1ccc(Cl)c(-c2nc(-c3c(C)noc3C)c(C)c(N3CC4(CN(CC(F)(F)F)C4)C3)n2)c1 [Example 99]

pIC50 [1],pIC50 (Human CARM1 (PRMT4)),Compound
7.17,7.95,CNC[C@@H](O)COc1ccc(Cl)c(-c2nc(-c3c(C)noc3C)c(C)c(N3CC4(CCN4CC(F)(F)F)C3)n2)c1 [Example 100]
7.42,8.36,CCc1cc2c(c(C)n1)CN(c1nc(-c3cc(OC[C@H](O)CNC)ccc3Cl)nc(-c3c(C)noc3C)c1C)C2 [Example 101]
7.57,8.35,CNC[C@@H](O)COc1ccc(Cl)c(-c2nc(-c3c(C)noc3C)c(C)c(N3Cc4cc(C)nc(C)c4C3)n2)c1 [Example 102]
6.89,8.09,CNC[C@@H](O)COc1ccc(Cl)c(-c2nc(-c3cnn(C4CC4)c3)c(C)c(-c3c(C)noc3C)n2)c1 [Example 103]
6.43,7.97,CNC[C@@H](O)COc1ccc(Cl)c(-c2nc(-c3c(C)noc3C)c(C)c(N3C[C@@H]4C[C@H]3CN4C(=O)OC)n2)c1 [Example 104]
7.96,8.49,CNC[C@@H](O)COc1ccc(Cl)c(-c2nc(-c3c(C)noc3C)c(C)c(N3Cc4cnc(N5CCC5)nc4C3)n2)c1 [Example 105]
7.60,8.26,CNC[C@@H](O)COc1ccc(Cl)c(-c2nc(-c3c(C)noc3C)c(C)c(N3Cc4cnc(OCCOC)nc4C3)n2)c1 [Example 106]
6.75,7.95,CNC[C@@H](O)COc1ccc(Cl)c(-c2nc(CCC3CCN(C(=O)OC)CC3)c(C)c(-c3c(C)noc3C)n2)c1 [Example 107]
6.79,7.74,CNC[C@@H](O)COc1ccc(Cl)c(-c2nc(-c3c(C)noc3C)c(C)c(N3CC4(CCN4CC(F)F)C3)n2)c1 [Example 108]
5.55,8.19,CNC[C@@H](O)COc1ccc(Cl)c(-c2nc(-c3c(C)noc3C)c(C)c(N3Cc4cnn(CC(=O)N(C)C)c4C3)n2)c1 [Example 109]
7.28,8.32,CNC[C@@H](O)COc1ccc(Cl)c(-c2nc(-c3c(C)noc3C)c(C)c(N3Cc4cnn(CCOC)c4C3)n2)c1 [Example 110]
6.09,7.95,CNC[C@@H](O)COc1ccc(Cl)c(-c2nc(-c3c(C)noc3C)c(C)c(N3CC4(CC(S(C)(=O)=O)C4)C3)n2)c1 [Example 111]
7.18,8.14,CNC[C@@H](O)COc1ccc(Cl)c(-c2nc(-c3c(C)noc3C)c(C)c(N3Cc4cn(CCOC)nc4C3)n2)c1 [Example 112]
5.94,8.06,CNC[C@@H](O)COc1ccc(Cl)c(-c2nc(-c3c(C)noc3C)c(C)c(N3Cc4cn(CC(=O)N(C)C)nc4C3)n2)c1 [Example 113]
5.23,8.11,CNC[C@@H](O)COc1ccc(Cl)c(-c2nc(-c3c(C)noc3C)c(C)c(N3Cc4cn(C(CO)CO)nc4C3)n2)c1 [Example 114]
5.04,8.00,CNC[C@@H](O)COc1ccc(Cl)c(-c2nc(-c3c(C)noc3C)c(C)c(N3Cc4cnn(C(CO)CO)c4C3)n2)c1 [Example 115]
6.47,7.86,CNC[C@@H](O)COc1ccc(Cl)c(-c2nc(-c3c(C)noc3C)c(C)c(N3CC4(CCN(CC(F)(F)F)C(=O)O4)C3)n2)c1 [Example 116]
7.51,8.41,CNC[C@@H](O)COc1ccc(Cl)c(-c2nc(-c3c(C)noc3C)c(C)c(N3Cc4cnc(SC)nc4C3)n2)c1 [Example 117]
6.37,8.05,CNC[C@@H](O)COc1ccc(Cl)c(-c2nc(-c3cnn(CC(F)(F)F)c3)c(C)c(-c3c(C)noc3C)n2)c1 [Example 118]
6.47,8.12,CNC[C@@H](O)COc1ccc(Cl)c(-c2nc(-c3cnn(CC(F)F)c3)c(C)c(-c3c(C)noc3C)n2)c1 [Example 119]
6.41,8.06,CNC[C@@H](O)COc1ccc(Cl)c(-c2nc(-c3c(C)noc3C)c(C)c(N3C[C@@H]4C[C@H]3CN4CC(F)(F)F)n2)c1 [Example 120]
6.59,7.87,CNC[C@@H](O)COc1ccc(Cl)c(-c2nc(CCC3CN(C(=O)OC)C3)c(C)c(-c3c(C)noc3C)n2)c1 [Example 121]
5.74,7.86,CNC[C@@H](O)COc1ccc(Cl)c(-c2nc(-c3c(C)noc3C)c(C)c(-n3ncc4c3CN(C(=O)OC)C4)n2)c1 [Example 122]
6.79,8.47,CNC[C@@H](O)COc1ccc(Cl)c(-c2nc(-c3c(C)noc3C)c(C)c(N3Cc4cccnc4C3C)n2)c1 (stereo partly drawn) [Example 123]
